According to patent publication US6489268B1, “Highly selective herbicidal phenoxypropionic acid alkoxycarbonyl anilid compounds and method of preparing the same” (Dongbu Hannong Chemical Co., Ltd., priority 1999, dated 2002):

What was measured:
Test in all cases: Leaf treatment test (post-emergence spray, % damage)
Type in all cases: in vivo
Conditions in all cases: 14 days after treatment, vs untreated control
[1] = test system: Echinochloa crus-galli Beauv. var. caudata Kitagawa (Barnyard grass, ECHCG)
Experimental: (§1) Seeds of rice, wheat, barley, corn, cotton, barnyard grass, common sorgum, large crabgrass and fall panicum were seeded at a pot with a surface area of 600 cm. When barnyard grass kept at 20˜30° C. had three leaves, wettable powders prepared by mixing 1 weight part of the active compound, 5 weight part of acetone and 1 weight part of emulsifier and diluting with water was applied directly on the leaves in 2000 l per hectare. The concentration of the spray liquid was so chosen the particular amounts of the active compound desired. 14 days after the treatment, the degree of damage to the plants was rated in % damage in comparison to the development of untreated control. 0% no action (like untreated control) 20% slight effect 70% herbicidal effect 100% total destruction [table]

[2] = test system: Oryza sativa L. cv. Dongjin (Rice, ORYSA)
Experimental: as §1

[3] = test system: Zea mays L. (Corn, ZEAMX)
Experimental: as §1

[4] = test system: Glydne max (L.) MERR (Soy bean, GLXMA)
Experimental: [The procedure below names another organism; the source lists this organism under the same test.] as §1

[5] = test system: Digitaria Sanguinalis (L.) SCOP (Large crabgrass, DIGSA)
Experimental: as §1

[6] = test system: Gossypium (Cotton, GOSHI)
Experimental: as §1

[7] = test system: Andropogon sorghum (Common sorgum, SORBI)
Experimental: as §1

[8] = test system: Triticum aestivum L. (Wheat, TRZAW)
Experimental: as §1

[9] = test system: Panicum dichotomiflorum Michx (Fall panicum, PANDI)
Experimental: as §1

SMILES: COC(=O)c1cccc(NC(=O)C(C)Oc2ccc(Oc3nc4ccc(Cl)cc4o3)cc2)c1 (stereo not drawn) [Compound 1]
- degree of damage to the plants, ECHCG ([1]; 15 g/ha): 0%
- degree of damage to the plants, ECHCG ([1]; 30 g/ha): 80%
- degree of damage to the plants, ECHCG ([1]; 60 g/ha): 100%
- degree of damage to the plants, ECHCG ([1]; 125 g/ha): 100%
- degree of damage to the plants, ECHCG ([1]; 250 g/ha): 100%
- degree of damage to the plants, ECHCG ([1]; 500 g/ha): 100%
- degree of damage to the plants, ECHCG ([1]; 1000 g/ha): 100%
- degree of damage to the plants, ORYSA ([2]; 15 g/ha): 0%
- degree of damage to the plants, ORYSA ([2]; 30 g/ha): 0%
- degree of damage to the plants, ORYSA ([2]; 60 g/ha): 0%
- degree of damage to the plants, ORYSA ([2]; 125 g/ha): 0%
- degree of damage to the plants, ORYSA ([2]; 250 g/ha): 10%
- degree of damage to the plants, ORYSA ([2]; 500 g/ha): 20%
- degree of damage to the plants, ORYSA ([2]; 1000 g/ha): 30%

SMILES: CCOC(=O)c1cccc(NC(=O)C(C)Oc2ccc(Oc3nc4ccc(Cl)cc4o3)cc2)c1 (stereo not drawn) [Compound 2]
- degree of damage to the plants, ZEMAX ([3]; 0.004 kg/ha): 0%
- degree of damage to the plants, ZEMAX ([3]; 0.016 kg/ha): 0%
- degree of damage to the plants, ZEMAX ([3]; 0.063 kg/ha): 20%
- degree of damage to the plants, ZEMAX ([3]; 1 kg/ha): 100%
- degree of damage to the plants, ZEMAX ([3]; 025 kg/ha): 100%
- degree of damage to the plants, GLXMA ([4]; 0.004 kg/ha): 0%
- degree of damage to the plants, GLXMA ([4]; 0.016 kg/ha): 0%
- degree of damage to the plants, GLXMA ([4]; 0.063 kg/ha): 0%
- degree of damage to the plants, GLXMA ([4]; 1 kg/ha): 0%
- degree of damage to the plants, GLXMA ([4]; 025 kg/ha): 0%
- degree of damage to the plants, ECHCG ([1]; 0.004 kg/ha): 90%
- degree of damage to the plants, ECHCG ([1]; 0.016 kg/ha): 100%
- degree of damage to the plants, ECHCG ([1]; 0.063 kg/ha): 100%
- degree of damage to the plants, ECHCG ([1]; 1 kg/ha): 100%
- degree of damage to the plants, ECHCG ([1]; 15 g/ha): 8%
- degree of damage to the plants, ECHCG ([1]; 025 kg/ha): 100%
- degree of damage to the plants, ECHCG ([1]; 30 g/ha): 100%
- degree of damage to the plants, ECHCG ([1]; 60 g/ha): 100%
- degree of damage to the plants, ECHCG ([1]; 125 g/ha): 100%
- degree of damage to the plants, ECHCG ([1]; 250 g/ha): 100%
- degree of damage to the plants, ECHCG ([1]; 500 g/ha): 100%
- degree of damage to the plants, ECHCG ([1]; 1000 g/ha): 100%
- degree of damage to the plants, DIGSA ([5]; 0.004 kg/ha): 95%
- degree of damage to the plants, DIGSA ([5]; 0.016 kg/ha): 100%
- degree of damage to the plants, DIGSA ([5]; 0.063 kg/ha): 100%
- degree of damage to the plants, DIGSA ([5]; 1 kg/ha): 100%
- degree of damage to the plants, DIGSA ([5]; 025 kg/ha): 100%
- degree of damage to the plants, GOSHI ([6]; 0.004 kg/ha): 0%
- degree of damage to the plants, GOSHI ([6]; 0.016 kg/ha): 0%
- degree of damage to the plants, GOSHI ([6]; 0.063 kg/ha): 0%
- degree of damage to the plants, GOSHI ([6]; 1 kg/ha): 0%
- degree of damage to the plants, GOSHI ([6]; 025 kg/ha): 0%
- degree of damage to the plants, ORYSA ([2]; 0.004 kg/ha): 0%
- degree of damage to the plants, ORYSA ([2]; 0.016 kg/ha): 0%
- degree of damage to the plants, ORYSA ([2]; 0.063 kg/ha): 0%
- degree of damage to the plants, ORYSA ([2]; 1 kg/ha): 40%
- degree of damage to the plants, ORYSA ([2]; 15 g/ha): 0%
- degree of damage to the plants, ORYSA ([2]; 025 kg/ha): 40%
- degree of damage to the plants, ORYSA ([2]; 30 g/ha): 0%
- degree of damage to the plants, ORYSA ([2]; 60 g/ha): 0%
- degree of damage to the plants, ORYSA ([2]; 125 g/ha): 0%
- degree of damage to the plants, ORYSA ([2]; 250 g/ha): 15%
- degree of damage to the plants, ORYSA ([2]; 500 g/ha): 35%
- degree of damage to the plants, ORYSA ([2]; 1000 g/ha): 45%
- degree of damage to the plants, SORBI ([7]; 0.004 kg/ha): 40%
- degree of damage to the plants, SORBI ([7]; 0.016 kg/ha): 100%
- degree of damage to the plants, SORBI ([7]; 0.063 kg/ha): 100%
- degree of damage to the plants, SORBI ([7]; 1 kg/ha): 100%
- degree of damage to the plants, SORBI ([7]; 025 kg/ha): 100%
- degree of damage to the plants, TRZAW ([8]; 0.004 kg/ha): 0%
- degree of damage to the plants, TRZAW ([8]; 0.016 kg/ha): 0%
- degree of damage to the plants, TRZAW ([8]; 0.063 kg/ha): 0%
- degree of damage to the plants, TRZAW ([8]; 1 kg/ha): 40%
- degree of damage to the plants, TRZAW ([8]; 025 kg/ha): 20%
- degree of damage to the plants, PANDI ([9]; 0.004 kg/ha): 95%
- degree of damage to the plants, PANDI ([9]; 0.016 kg/ha): 100%
- degree of damage to the plants, PANDI ([9]; 0.063 kg/ha): 100%
- degree of damage to the plants, PANDI ([9]; 1 kg/ha): 100%
- degree of damage to the plants, PANDI ([9]; 025 kg/ha): 100%

SMILES: CCOC(=O)c1cccc(N(C)C(=O)C(C)Oc2ccc(Oc3nc4ccc(Cl)cc4o3)cc2)c1 (stereo not drawn) [Compound 3]
- degree of damage to the plants, ECHCG ([1]; 15 g/ha): 0%
- degree of damage to the plants, ECHCG ([1]; 30 g/ha): 0%
- degree of damage to the plants, ECHCG ([1]; 60 g/ha): 20%
- degree of damage to the plants, ECHCG ([1]; 125 g/ha): 90%
- degree of damage to the plants, ECHCG ([1]; 250 g/ha): 100%
- degree of damage to the plants, ECHCG ([1]; 500 g/ha): 100%
- degree of damage to the plants, ECHCG ([1]; 1000 g/ha): 100%
- degree of damage to the plants, ORYSA ([2]; 15 g/ha): 0%
- degree of damage to the plants, ORYSA ([2]; 30 g/ha): 0%
- degree of damage to the plants, ORYSA ([2]; 60 g/ha): 0%
- degree of damage to the plants, ORYSA ([2]; 125 g/ha): 0%
- degree of damage to the plants, ORYSA ([2]; 250 g/ha): 0%
- degree of damage to the plants, ORYSA ([2]; 500 g/ha): 0%
- degree of damage to the plants, ORYSA ([2]; 1000 g/ha): 0%

SMILES: COC(=O)c1ccc(NC(=O)C(C)Oc2ccc(Oc3nc4ccc(Cl)cc4o3)cc2)cc1 (stereo not drawn) [Compound 4]
- degree of damage to the plants, ZEAMX ([3]; 0.025 kg/ha): 0%
- degree of damage to the plants, ZEAMX ([3]; 0.1 kg/ha): 0%
- degree of damage to the plants, GLXMA ([4]; 0.025 kg/ha): 0%
- degree of damage to the plants, GLXMA ([4]; 0.1 kg/ha): 0%
- degree of damage to the plants, ECHCG ([1]; 0.025 kg/ha): 100%
- degree of damage to the plants, ECHCG ([1]; 0.1 kg/ha): 100%
- degree of damage to the plants, DIGSA ([5]; 0.025 kg/ha): 100%
- degree of damage to the plants, DIGSA ([5]; 0.1 kg/ha): 100%
- degree of damage to the plants, GOSHI ([6]; 0.025 kg/ha): 0%
- degree of damage to the plants, GOSHI ([6]; 0.1 kg/ha): 0%
- degree of damage to the plants, ORYSA ([2]; 0.025 kg/ha): 0%
- degree of damage to the plants, ORYSA ([2]; 0.1 kg/ha): 30%
- degree of damage to the plants, SORBI ([7]; 0.025 kg/ha): 70%
- degree of damage to the plants, SORBI ([7]; 0.1 kg/ha): 100%
- degree of damage to the plants, TRZAW ([8]; 0.025 kg/ha): 0%
- degree of damage to the plants, TRZAW ([8]; 0.1 kg/ha): 0%
- degree of damage to the plants, PANDI ([9]; 0.025 kg/ha): 80%
- degree of damage to the plants, PANDI ([9]; 0.1 kg/ha): 100%

SMILES: CCOC(=O)c1ccc(NC(=O)C(C)Oc2ccc(Oc3nc4ccc(Cl)cc4o3)cc2)cc1 (stereo not drawn) [Compound 5]
- degree of damage to the plants, ZEAMX ([3]; 0.025 kg/ha): 0%
- degree of damage to the plants, ZEAMX ([3]; 0.1 kg/ha): 30%
- degree of damage to the plants, GLXMA ([4]; 0.025 kg/ha): 0%
- degree of damage to the plants, GLXMA ([4]; 0.1 kg/ha): 20%
- degree of damage to the plants, ECHCG ([1]; 0.025 kg/ha): 95%
- degree of damage to the plants, ECHCG ([1]; 0.1 kg/ha): 100%
- degree of damage to the plants, DIGSA ([5]; 0.025 kg/ha): 100%
- degree of damage to the plants, DIGSA ([5]; 0.1 kg/ha): 100%
- degree of damage to the plants, GOSHI ([6]; 0.025 kg/ha): 0%
- degree of damage to the plants, GOSHI ([6]; 0.1 kg/ha): 0%
- degree of damage to the plants, ORYSA ([2]; 0.025 kg/ha): 0%
- degree of damage to the plants, ORYSA ([2]; 0.1 kg/ha): 40%
- degree of damage to the plants, SORBI ([7]; 0.025 kg/ha): 95%
- degree of damage to the plants, SORBI ([7]; 0.1 kg/ha): 100%
- degree of damage to the plants, TRZAW ([8]; 0.025 kg/ha): 0%
- degree of damage to the plants, TRZAW ([8]; 0.1 kg/ha): 20%
- degree of damage to the plants, PANDI ([9]; 0.025 kg/ha): 95%
- degree of damage to the plants, PANDI ([9]; 0.1 kg/ha): 100%
